Patent EP0598011B1, “ECDYSTEROID DEPENDENT REGULATION OF GENES IN MAMMALIAN CELLS” (GENENTECH, INC., priority 1991, dated 1993)

Columns and labels:
[1] = molecular target: T1, GGEc (Drosophila melanogaster, UniProt P34021); test: Induction of GRE reporter G4M-77CO by chimeric receptor GGEc in 293 cells; type: cell-based; conditions: for fold induction: 293 cells, reporter G4M-77CO, normalized to hGH, SD in parentheses
T1 construct: expressed in transfected cells; host or cells: 293 cells
T1 sequence (P34021 329-878): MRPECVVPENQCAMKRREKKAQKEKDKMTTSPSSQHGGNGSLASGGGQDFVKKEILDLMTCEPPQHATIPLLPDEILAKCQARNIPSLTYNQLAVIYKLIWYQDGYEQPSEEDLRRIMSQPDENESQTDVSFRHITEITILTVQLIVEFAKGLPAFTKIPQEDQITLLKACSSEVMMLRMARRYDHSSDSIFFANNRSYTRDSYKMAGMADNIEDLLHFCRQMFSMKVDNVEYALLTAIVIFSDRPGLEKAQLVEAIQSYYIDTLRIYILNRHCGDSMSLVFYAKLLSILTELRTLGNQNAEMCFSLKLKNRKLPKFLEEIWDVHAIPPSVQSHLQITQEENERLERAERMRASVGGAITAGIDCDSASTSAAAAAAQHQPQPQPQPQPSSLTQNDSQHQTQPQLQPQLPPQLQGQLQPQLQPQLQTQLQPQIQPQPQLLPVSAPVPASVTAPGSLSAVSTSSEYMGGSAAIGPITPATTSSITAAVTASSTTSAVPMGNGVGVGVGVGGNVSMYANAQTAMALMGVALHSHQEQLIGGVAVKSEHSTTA
Source text: I choose to determine if the ligand-binding domain of DHR23a could be used to regulate the DNA-binding and transactivation domains of the mammalian glucocorticoid receptor for the following reasons. First, in contrast to DHR23α, high affinity DNA-binding sites for the GR have been identified (M. Beato, Cell 56, 335 [1989]) and reporter genes containing these sites are very strongly regulated. Thus, the sensitivity of our assays could be increased. Secondly, these chimeric receptors could be utilized to selectively regulate endogenous genes in mammalian cells in response to ecdysteroids. I constructed a chimeric gene, GGEc, in which the sequences encoding the ligand-binding domain of the GR were replaced with that of DHR23α (Fig. 4A). […] However, expression of the GRE-containing reporter gene was induced more than 700 fold by GGEc in muristerone-treated cells.

[2] = tested on: X4C-33CO; test: Lex-operator reporter X4C-33CO, control effector plasmid without receptor cDNA; type: cell-based; conditions: SD in parentheses
Source text: (§1) Such fusion constructs are expected to be useful in regulating the expression of exogenous genes introduced into transgenic mammals or mammalian cells. I next determined if the DHR23α ligand-binding domain could be used to regulate the activity of a DNA-binding domain not normally expressed in mammalian cells. I constructed the chimeric gene GLxEc by replacing the sequences coding for the GR DNA-binding domain in the GGEc fusion with those encoding the DNA-binding domain of the Escherichia coli LexA repressor (J. W. Little and S. A. Hill, Proc. Natl. Acad. Sci. U.S.A. 82, 2301 [1985]) (Fig. 4). A reporter gene, X4C-33CO was constructed that contains 4 copies of a 26-bp lex operator (R. Brent and M. Ptashne, Nature 312, 612 [1984]) at position -33 of the CMV promoter. GLxEc had no effect on the expression of a OC-33CO, a reporter gene lacking the lex operator (Fig. 6B).
(§2) Illustrated in Table 2 is the transcriptional activation by receptor-LexA fusion proteins. Effector plasmids encoding the indicated receptor proteins were transfected with a reporter gene either containing (X4C-33CO) or lacking (OC-33CO) lex-operators. […] The cells were incubated either with (+) or without (-) muristerone A. The fold induction was determined as described previously; the standard deviations are shown in parenthesis.

[3] = molecular target: T2, GXG (Rattus norvegicus, UniProt P06536); test: Lex-operator reporter X4C-33CO with GXG; type: cell-based; conditions: receptor GXG, SD in parentheses
T2 construct: expressed in transfected cells
T2 sequence (P06536 528-795): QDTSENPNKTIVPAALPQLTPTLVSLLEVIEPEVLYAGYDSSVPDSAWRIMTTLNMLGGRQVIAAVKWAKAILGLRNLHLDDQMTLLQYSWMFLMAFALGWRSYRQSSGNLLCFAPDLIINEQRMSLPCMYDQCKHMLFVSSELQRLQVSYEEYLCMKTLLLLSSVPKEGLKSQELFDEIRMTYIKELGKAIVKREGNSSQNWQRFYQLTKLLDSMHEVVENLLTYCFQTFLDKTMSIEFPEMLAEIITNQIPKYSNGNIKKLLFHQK
Source text: as §1, §2

[4] = molecular target: T3, VXEc (Drosophila melanogaster, UniProt P34021); test: Lex-operator reporter X4C-33CO with VXEc; type: cell-based; conditions: receptor VXEc, SD in parentheses
T3 construct: expressed in transfected cells
T3 sequence (P34021 329-878): T1 sequence (P34021 329-878)
Source text: (§3) Finally, I determined if the activity of DHR23α fusion proteins could be further enhanced by inclusion of a potent viral transactivation domain. I constructed VGEc and VLxEc fusion genes by replacing a portion of the GR N-terminal activation domain in GGEc and GLxEc, respectively, with the herpes virus VP16 acidic activation domain (I. Sadowski et al., […]. 335, 563 [1988]; D. J. Cousens, R. Greaves, C. R. Coding, and P. O'Hare, EMBO J. 8, 2337 [1989]) (Fig. 4A). In transfected cells, these proteins accumulated to similar levels as derivatives lacking the VP16 activation domain (Fig. 4B). Both VGEc and VLxEc acted in an ecdysteroid-dependent fashion to induce activity of the appropriate reporter gene (Tables 1 and 2). However, the activity of VGEc and VLxEc was 5 and 10 fold greater than GGEc and GLxEc, respectively (M..A. Labow, S.B. Baim, T. Shenk, and A. J. Levine, Mol. and Cell. Biol. 10, 3343 [1990]). Thus, the DHR23α ligand-binding domain can be used to regulate the activities of viral, mammalian and bacterial DNA-binding or transactivation domains.
(§4) Illustrated in Table 2 is the transcriptional activation by receptor-LexA fusion proteins. […] The cells were incubated either with (+) or without (-) muristerone A. The fold induction was determined as described previously; the standard deviations are shown in parenthesis.

[5] = tested on: OC-33CO; test: Reporter OC-33CO lacking lex-operators, control effector plasmid without receptor cDNA; type: cell-based; conditions: SD in parentheses
Source text: as §1, §2

[6] = molecular target: T4, GXEc (Drosophila melanogaster, UniProt P34021); test: Reporter OC-33CO lacking lex-operators with GXEc; type: cell-based; conditions: receptor GXEc, SD in parentheses
T4 construct: expressed in transfected cells
T4 sequence (P34021 329-878): T1 sequence (P34021 329-878)
Source text: as §1, §2

[7] = molecular target: T3, VXEc; test: Reporter OC-33CO lacking lex-operators with VXEc; type: cell-based; conditions: receptor VXEc, SD in parentheses
Source text: as §3, §4

[8] = tested on: insect; conditions: in vivo; cited from earlier work
[9] = molecular target: EcEcEc (Drosophila melanogaster, UniProt P34021); test: Lex-operator reporter X4C-33CO with EcEcEc (DHR23α); type: cell-based; set-up: To isolate the full-length DHR23α clones; expressed in transfected cells; conditions: receptor EcEcEc, SD in parentheses
Chain of EcEcEc (P19793 whole entry): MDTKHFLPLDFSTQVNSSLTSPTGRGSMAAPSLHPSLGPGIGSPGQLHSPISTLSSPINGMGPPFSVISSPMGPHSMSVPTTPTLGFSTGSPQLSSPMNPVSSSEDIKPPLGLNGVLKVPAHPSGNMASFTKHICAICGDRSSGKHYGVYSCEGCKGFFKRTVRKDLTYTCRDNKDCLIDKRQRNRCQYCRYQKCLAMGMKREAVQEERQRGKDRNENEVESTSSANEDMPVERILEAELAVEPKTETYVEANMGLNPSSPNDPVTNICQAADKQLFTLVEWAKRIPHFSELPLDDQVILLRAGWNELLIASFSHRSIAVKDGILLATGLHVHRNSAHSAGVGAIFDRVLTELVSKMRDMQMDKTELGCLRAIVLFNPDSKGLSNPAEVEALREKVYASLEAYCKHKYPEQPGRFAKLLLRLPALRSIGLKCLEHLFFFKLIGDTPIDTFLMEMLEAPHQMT
Chain of EcEcEc (P34021 whole entry): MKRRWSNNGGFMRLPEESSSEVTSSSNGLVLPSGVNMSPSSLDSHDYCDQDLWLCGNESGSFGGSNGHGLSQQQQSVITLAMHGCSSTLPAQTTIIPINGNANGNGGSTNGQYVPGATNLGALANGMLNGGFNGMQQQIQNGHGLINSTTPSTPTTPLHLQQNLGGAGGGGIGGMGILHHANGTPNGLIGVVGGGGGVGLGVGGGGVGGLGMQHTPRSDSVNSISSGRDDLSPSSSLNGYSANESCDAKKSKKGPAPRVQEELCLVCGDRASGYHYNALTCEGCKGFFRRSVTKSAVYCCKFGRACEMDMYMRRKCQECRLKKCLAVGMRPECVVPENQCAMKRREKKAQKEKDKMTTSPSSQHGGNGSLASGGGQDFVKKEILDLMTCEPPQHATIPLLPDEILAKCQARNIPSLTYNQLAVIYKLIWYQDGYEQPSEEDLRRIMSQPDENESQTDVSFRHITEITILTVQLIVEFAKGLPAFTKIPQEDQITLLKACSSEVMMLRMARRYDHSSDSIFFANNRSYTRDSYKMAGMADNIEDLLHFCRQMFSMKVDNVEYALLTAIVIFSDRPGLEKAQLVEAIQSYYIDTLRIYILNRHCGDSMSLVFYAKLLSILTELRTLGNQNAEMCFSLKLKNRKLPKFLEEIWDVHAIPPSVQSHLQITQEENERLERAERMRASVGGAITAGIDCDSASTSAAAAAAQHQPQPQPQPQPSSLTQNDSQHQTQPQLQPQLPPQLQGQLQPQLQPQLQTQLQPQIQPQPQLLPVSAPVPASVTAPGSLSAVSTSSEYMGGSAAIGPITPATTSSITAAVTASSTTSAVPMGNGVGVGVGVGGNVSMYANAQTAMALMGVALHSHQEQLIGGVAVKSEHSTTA
Source text: as §1, §2

Question: Which results are given for `CC(C)CCC(O)[C@](C)(O)[C@H]1CC[C@@]2(O)C3=CC(=O)C4(O)CC(O)C(O)C[C@]4(C)[C@H]3C(O)C[C@]12C` (stereo partly shown) [muristerone A, 2,3,5,11,14,20,22-Heptahydroxy-7-cholesten-6-one]?
Answer: fold induction [1]: more than 700 fold; fold induction ([1]; listed as M): 798 (57) fold; relative efficacies of ecdysteroids as agonists for the chimeric receptor ([1]; GRE reporter G4M-77CO): strong; fold induction [2]: 1.1 (0.3) fold; fold induction [3]: 1.1 (0.2) fold; fold induction ([3]; listed as muristerone): not induced; fold induction [4]: 563 (61) fold; fold induction [5]: 1.1 (0.4) fold; fold induction [6]: 0.9 (0.3) fold; fold induction [7]: 1.0 (0.2) fold; insect moulting activity [8]: high; fold induction [9]: 1.4 (0.1) fold; fold induction ([9]; listed as muristerone): not induced
